IC50 data for 33 compounds are collected here from ChEMBL document CHEMBL5346903, “Discovery of novel and bioavailable histone deacetylases and cyclin-dependent kinases dual inhibitor to impair the stemness of leukemia cells” (Eur J Med Chem, 2023).

One test deals with Kasumi 1. Kind of test: Antiproliferative activity against human Kasumi 1 cells incubated for 72 hrs by CCK8 assay. It counts as functional, cell-based. Conditions: Kasumi 1, 72 h. On the technique in general: Tetrazolium dyes change colour on reduction, which living cells bring about.
The nature of test [1]: Antiproliferative activity against human SKNO-1 cells incubated for 72 hrs by CCK8 assay. It counts as functional, cell-based. Conditions: SKNO-1, 72 h.
Test [2] concerns the target Cyclin-dependent kinase 9 (Homo sapiens, UniProt P50750). Kind of test: Inhibition of CDK9 (unknown origin) preincubated for 20 mins followed by [gamma-33P]ATP addition measured after 120 mins in presence of ATP by Hot-SpotSM kinase assay.
The next test relates to U-937. The test can be described thus: Antiproliferative activity against human U-937 cells incubated for 72 hrs by CCK8 assay. It counts as functional, cell-based. Conditions: U-937, 72 h.
A further test has as its system HL-60. The test can be described thus: Antiproliferative activity against human HL-60 cells incubated for 72 hrs by CCK8 assay. It counts as functional, cell-based. The conditions noted are these: HL-60, 72 h.
In the next test the target is Histone deacetylase. The test can be described thus: Inhibition of HDAC in human nuclear extract using Ac-Arg-Gly-Lys(Ac)-AMC as substrate incubated overnight by fluorescence based assay. The conditions noted are these: hela. In kind it is subcellular, Nucleus.

The structures appear in SMILES notation.

A word on the IC50: it is the point on the concentration scale where inhibition reaches its midpoint.

Cyclin-dependent kinase 9, sequence (P50750 whole entry): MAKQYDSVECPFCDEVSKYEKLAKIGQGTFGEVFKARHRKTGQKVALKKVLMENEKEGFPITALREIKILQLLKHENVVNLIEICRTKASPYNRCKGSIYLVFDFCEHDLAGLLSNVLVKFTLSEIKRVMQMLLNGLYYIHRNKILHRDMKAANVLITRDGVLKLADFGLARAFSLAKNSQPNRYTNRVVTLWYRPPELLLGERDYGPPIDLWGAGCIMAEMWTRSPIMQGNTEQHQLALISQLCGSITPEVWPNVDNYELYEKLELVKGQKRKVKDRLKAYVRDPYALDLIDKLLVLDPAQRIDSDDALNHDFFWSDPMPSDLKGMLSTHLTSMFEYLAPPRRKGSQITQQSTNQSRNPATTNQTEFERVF

As for `O=C(CNC(=O)c1n[nH]cc1NC(=O)c1c(Cl)cccc1Cl)NO`, the concentration for half-maximal inhibition (IC50) in the test with Kasumi 1 was more than 10 µM; in test [1], more than 10 µM; in test [2] it was less than 0.1 µM; in the test on U-937, more than 10 µM; in the test with HL-60 it was more than 10 µM.

On to `O=C(CCCCNC(=O)c1ccc(NC(=O)c2n[nH]cc2NC(=O)c2c(Cl)cccc2Cl)cc1)NO`, for which the IC50 was more than 10 µM with Kasumi 1; more than 10 µM in test [1]; less than 0.1 µM in test [2]; 8.52 µM in the test on U-937; more than 10 µM with HL-60.

As to `O=C(CCCCN1CCC(NC(=O)c2n[nH]cc2NC(=O)c2c(F)cccc2F)CC1)NO`, the IC50 in the test on Kasumi 1 is 6.44 µM; in test [1] it was 6.53 µM; in test [2] it was less than 0.1 µM; in the test on U-937, 7.34 µM; in the test with HL-60, 1.77 µM.

For `O=C(CCNC(=O)c1ccc(NC(=O)c2n[nH]cc2NC(=O)c2c(F)cccc2F)cc1)NO`, the IC50 with Kasumi 1 is 8.81 µM; in test [1], 5.97 µM; in test [2] it was less than 0.1 µM; in the test with U-937, more than 10 µM; in the test on HL-60 it was more than 10 µM.

In the case of `Nc1cc(Cl)c(Cl)cc1NC(=O)c1ccc(NC(=O)c2n[nH]cc2NC(=O)c2c(F)cccc2F)cc1`, the IC50 is 7.79 µM in the test with Kasumi 1; 7.28 µM in test [1]; less than 0.1 µM in test [2]; 6.8 µM with U-937; more than 10 µM with HL-60.

`O=C(CNC(=O)c1ccc(NC(=O)c2n[nH]cc2NC(=O)c2c(F)cccc2F)cc1)NO`: the 50% inhibitory concentration (IC50) was more than 10 µM with Kasumi 1; more than 10 µM in test [1]; less than 0.1 µM in test [2]; more than 10 µM in the test with U-937; more than 10 µM in the test on HL-60.

`O=C(CCCCCNC(=O)c1ccc(NC(=O)c2n[nH]cc2NC(=O)c2c(Cl)cccc2Cl)cc1)NO`: the half-inhibitory concentration (IC50) with Kasumi 1 was more than 10 µM; in test [1], more than 10 µM; in test [2], less than 0.1 µM; in the test on U-937, more than 10 µM; with HL-60, more than 10 µM.

With `O=C(Nc1ccccc1)c1ccc(NC(=O)c2n[nH]cc2NC(=O)c2c(Cl)cccc2Cl)cc1`, the IC50 was 3.83 µM in the test on Kasumi 1; 3.27 µM in test [1]; less than 0.1 µM in test [2]; 4.68 µM in the test on U-937; 5.84 µM in the test on HL-60.

For the compound `O=C(CCCCCN1CCC(NC(=O)c2n[nH]cc2NC(=O)c2c(Cl)cccc2Cl)CC1)NO`, the IC50 in the test with Kasumi 1 is 6.19 µM; in test [1], 3.02 µM; in test [2], less than 0.1 µM; in the test with U-937 it was 1.84 µM; in the test on HL-60 it was 1.75 µM.

With `O=C(CCNC(=O)c1n[nH]cc1NC(=O)c1c(Cl)cccc1Cl)NO`, the IC50 was 3.87 µM in the test on Kasumi 1; more than 10 µM in test [1]; less than 0.1 µM in test [2]; more than 10 µM in the test with U-937; 10 µM in the test with HL-60.

On to `O=C(CCCNC(=O)c1ccc(NC(=O)c2n[nH]cc2NC(=O)c2c(F)cccc2F)cc1)NO`, for which the IC50 is 5.6 µM in the test with Kasumi 1; more than 10 µM in test [1]; less than 0.1 µM in test [2]; more than 10 µM in the test on U-937; more than 10 µM with HL-60.

Regarding `O=C(CCCNC(=O)c1ccc(NC(=O)c2n[nH]cc2NC(=O)c2c(Cl)cccc2Cl)cc1)NO`, the concentration for half-maximal inhibition (IC50) in the test on Kasumi 1 is more than 10 µM; in test [1], more than 10 µM; in test [2], less than 0.1 µM; with U-937, more than 10 µM; in the test on HL-60 it was more than 10 µM.

For `Nc1cc(Br)c(Br)cc1NC(=O)c1ccc(NC(=O)c2n[nH]cc2NC(=O)c2c(F)cccc2F)cc1`, the IC50 was more than 10 µM in the test on Kasumi 1; more than 10 µM in test [1]; less than 0.1 µM in test [2]; more than 10 µM with U-937; more than 10 µM in the test on HL-60.

For `O=C(CCCCCCN1CCC(NC(=O)c2n[nH]cc2NC(=O)c2c(F)cccc2F)CC1)NO`, the concentration for half-maximal inhibition (IC50) in the test on Kasumi 1 is 1.96 µM; in test [1] it was 1.08 µM; in test [2], less than 0.1 µM; in the test with U-937, 1.44 µM; in the test with HL-60, 1.01 µM.

Turning to `O=C(CCN1CCC(NC(=O)c2n[nH]cc2NC(=O)c2c(Cl)cccc2Cl)CC1)NO`, the IC50 with Kasumi 1 is 1.38 µM; in test [1], 1.67 µM; in test [2] it was less than 0.1 µM; with U-937, 0.91 µM; in the test with HL-60, 1.54 µM.

Consider `Nc1cc(Cl)c(Cl)cc1NC(=O)c1ccc(NC(=O)c2n[nH]cc2NC(=O)c2c(Cl)cccc2Cl)cc1`, for which the IC50 was 8.42 µM with Kasumi 1; 5.54 µM in test [1]; less than 0.1 µM in test [2]; 5.92 µM with U-937; 9.76 µM in the test on HL-60.

Regarding `Nc1cc(Br)c(Br)cc1NC(=O)c1ccc(NC(=O)c2n[nH]cc2NC(=O)c2c(Cl)cccc2Cl)cc1`, the concentration for half-maximal inhibition (IC50) with Kasumi 1 is 6.92 µM; in test [1] it was 4.56 µM; in test [2], less than 0.1 µM; in the test with U-937 it was 9.13 µM; with HL-60 it was 6.86 µM.

As to `O=C(CCCN1CCC(NC(=O)c2n[nH]cc2NC(=O)c2c(F)cccc2F)CC1)NO`, the IC50 in the test on Kasumi 1 was more than 10 µM; in test [1], 6.31 µM; in test [2] it was less than 0.1 µM; in the test on U-937, more than 10 µM; in the test with HL-60 it was 2.55 µM.

Take `O=C(CN1CCC(NC(=O)c2n[nH]cc2NC(=O)c2c(Cl)cccc2Cl)CC1)NO`: the IC50 was 1.54 µM with Kasumi 1; 1.54 µM in test [1]; less than 0.1 µM in test [2]; 0.94 µM with U-937; 1.16 µM in the test on HL-60.

Consider `Cc1cc(N)c(NC(=O)c2ccc(NC(=O)c3n[nH]cc3NC(=O)c3c(F)cccc3F)cc2)cc1C`, for which the IC50 with Kasumi 1 was more than 10 µM; in test [1], 6.89 µM; in test [2], less than 0.1 µM; in the test with U-937 it was more than 10 µM; with HL-60, more than 10 µM.

Take `O=C(CCCCCNC(=O)c1n[nH]cc1NC(=O)c1c(Cl)cccc1Cl)NO`: the IC50 with Kasumi 1 was more than 10 µM; in test [1] it was more than 10 µM; in test [2], less than 0.1 µM; with U-937 it was more than 10 µM; in the test with HL-60 it was more than 10 µM.

In the case of `O=C(CCCCN1CCC(NC(=O)c2n[nH]cc2NC(=O)c2c(Cl)cccc2Cl)CC1)NO`, the IC50 with Kasumi 1 is 3.72 µM; in test [1] it was 2.32 µM; in test [2], less than 0.1 µM; with U-937 it was 1.83 µM; in the test on HL-60, 1.1 µM.

Consider `O=C(CCNC(=O)c1ccc(NC(=O)c2n[nH]cc2NC(=O)c2c(Cl)cccc2Cl)cc1)NO`, for which the concentration for half-maximal inhibition (IC50) in the test on Kasumi 1 is more than 10 µM; in test [1], more than 10 µM; in test [2], less than 0.1 µM; with U-937 it was more than 10 µM; in the test on HL-60, more than 10 µM.

With `O=C(CCCCCN1CCC(NC(=O)c2n[nH]cc2NC(=O)c2c(F)cccc2F)CC1)NO`, the IC50 in the test with Kasumi 1 was more than 10 µM; in test [1], more than 10 µM; in test [2] it was less than 0.1 µM; with U-937, more than 10 µM; in the test on HL-60, 1.81 µM.

As for `O=C(CCCCCCN1CCC(NC(=O)c2n[nH]cc2NC(=O)c2c(Cl)cccc2Cl)CC1)NO`, the IC50 with Kasumi 1 is 6.41 µM; against Histone deacetylase it was less than 1 µM; in test [1], 3.09 µM; in test [2], less than 0.1 µM; in the test on U-937 it was 0.47 µM; in the test with HL-60, 1.09 µM.

As for `O=C(CCCCCNC(=O)c1ccc(NC(=O)c2n[nH]cc2NC(=O)c2c(F)cccc2F)cc1)NO`, the concentration for half-maximal inhibition (IC50) with Kasumi 1 was more than 10 µM; in test [1], more than 10 µM; in test [2], less than 0.1 µM; in the test with U-937 it was more than 10 µM; with HL-60 it was more than 10 µM.

Take `O=C(CCCNC(=O)c1n[nH]cc1NC(=O)c1c(Cl)cccc1Cl)NO`: the IC50 with Kasumi 1 is more than 10 µM; in test [1], more than 10 µM; in test [2] it was less than 0.1 µM; in the test on U-937, more than 10 µM; with HL-60, more than 10 µM.

In the case of `O=C(CCCCNC(=O)c1n[nH]cc1NC(=O)c1c(Cl)cccc1Cl)NO`, the half-inhibitory concentration (IC50) with Kasumi 1 was more than 10 µM; in test [1], more than 10 µM; in test [2], less than 0.1 µM; in the test with U-937, more than 10 µM; in the test with HL-60 it was more than 10 µM.

For `O=C(CCCN1CCC(NC(=O)c2n[nH]cc2NC(=O)c2c(Cl)cccc2Cl)CC1)NO`, the half-inhibitory concentration (IC50) in the test with Kasumi 1 is 3.52 µM; in test [1], 2.23 µM; in test [2] it was less than 0.1 µM; in the test with U-937 it was 1.61 µM; in the test with HL-60 it was 1.24 µM.

For the compound `Nc1ccccc1NC(=O)c1ccc(NC(=O)c2n[nH]cc2NC(=O)c2c(F)cccc2F)cc1`, the IC50 with Kasumi 1 was 3.1 µM; in test [1], 2.65 µM; in test [2], less than 0.1 µM; in the test with U-937 it was 5.6 µM; with HL-60 it was more than 10 µM.

Turning to `O=C(CCN1CCC(NC(=O)c2n[nH]cc2NC(=O)c2c(F)cccc2F)CC1)NO`, the half-inhibitory concentration (IC50) in the test with Kasumi 1 is 4.8 µM; in test [1] it was 9.28 µM; in test [2], less than 0.1 µM; in the test on U-937, more than 10 µM; with HL-60, 4.45 µM.

As for `Cc1cc(N)c(NC(=O)c2ccc(NC(=O)c3n[nH]cc3NC(=O)c3c(Cl)cccc3Cl)cc2)cc1C`, the IC50 is 0.93 µM in the test with Kasumi 1; 2.56 µM in test [1]; less than 0.1 µM in test [2]; 1.14 µM in the test on U-937; 1.02 µM with HL-60.

In the case of `O=C(CCCCNC(=O)c1ccc(NC(=O)c2n[nH]cc2NC(=O)c2c(F)cccc2F)cc1)NO`, the IC50 in the test with Kasumi 1 was more than 10 µM; in test [1], more than 10 µM; in test [2], less than 0.1 µM; with U-937, more than 10 µM; with HL-60, more than 10 µM.
